# Data reported in ChEMBL document CHEMBL1153258, “Synthesis and antiviral activity of 3-substituted imidazo[1,2-a]pyridines” (Bioorg Med Chem Lett, 1994).
# Key:
# [1] = test system: HEL; test: Antiviral activity against thymidine kinase-positive (TK+) YS strain of Varicella zoster virus to reduce plaque formation in human embryonic lung (HEL) cells; format: functional, cell-based
# [2] = Cytotoxicity (to reduce cell growth) against Varicella-Zoster virus in human embryonic lung (HEL) cells; format: cell-based
# [3] = test system: HEL; test: Cytotoxicity (to alter cell morphology) against Varicella-Zoster virus in human embryonic lung (HEL) cells; format: functional
# [4] = test system: HEL; test: Antiviral activity against thymidine kinase-positive (TK+) OKA strain of Varicella zoster virus to reduce plaque formation in human embryonic lung (HEL) cells; format: functional, cell-based
# [5] = test system: HEL; test: Antiviral activity against thymidine kinase-negative (TK-) YS/R strain of Varicella zoster virus to reduce plaque formation in human embryonic lung (HEL) cells; format: functional, cell-based
# [6] = test system: HEL; test: Antiviral activity against Cytomegalovirus (Davis strain) to reduce plaque formation in human embryonic lung (HEL) cells; format: functional, cell-based
# [7] = Cytotoxicity (to reduce cell growth) against Cytomegalovirus in human embryonic lung (HEL) cells; format: cell-based
# [8] = test system: HEL; test: Antiviral activity against Cytomegalovirus (AD-169 strain) to reduce plaque formation in human embryonic lung (HEL) cells; format: functional, cell-based
# [9] = test system: HEL; test: Cytotoxicity (to alter cell morphology) against Cytomegalovirus in human embryonic lung (HEL) cells; format: functional
# [10] = test system: Vero; test: Antiviral activity (to reduce virus-induced cytopathogenicity) against forest virus in vero cells; format: functional; details: Chlorocebus sabaeus
# [11] = test system: Vero; test: Antiviral activity (to reduce virus-induced cytopathogenicity) against Coxsackie virus in vero cells; format: functional; details: Chlorocebus sabaeus
# [12] = test system: E6SM; test: Cytotoxicity (to alter cell morphology) against E6SM cell cultures; format: functional; details: Homo sapiens
# [13] = test system: HEL; test: Antiviral activity against thymidine kinase-negative (TK-) O7/1 strain of Varicella zoster virus to reduce plaque formation in human embryonic lung (HEL) cells; format: functional, cell-based
# [14] = test system: Vero; test: Antiviral activity (to reduce virus-induced cytopathogenicity) against Parainfluenza-3 virus in vero cells; format: functional; details: Chlorocebus sabaeus
# [15] = test system: HeLa; test: Antiviral activity (to reduce virus-induced cytopathogenicity) against Polio virus-I in HeLa cells; format: functional; details: Homo sapiens
# [16] = test system: E6SM; test: Antiviral activity (to reduce virus-induced cytopathogenicity) against Herpes simplex virus-2 (G) in E6SM cell cultures; format: functional; details: Homo sapiens
# [17] = test system: E6SM; test: Antiviral activity (to reduce virus-induced cytopathogenicity) against Vesicular stomatitis virus in E6SM cell cultures; format: functional; details: Homo sapiens
# [18] = test system: E6SM; test: Antiviral activity (to reduce virus-induced cytopathogenicity) against Vaccinia virus in E6SM cell cultures; format: functional; details: Homo sapiens
# [19] = test system: HeLa; test: Antiviral activity (to reduce virus-induced cytopathogenicity) against Coxsackie virus B4 in HeLa cells; format: functional; details: Homo sapiens
# [20] = test system: HeLa; test: Antiviral activity (to reduce virus-induced cytopathogenicity) against Vesicular stomatitis virus in HeLa cells; format: functional; details: Homo sapiens
# [21] = test system: Vero; test: Antiviral activity (to reduce virus-induced cytopathogenicity) against Sindbis virus in vero cells; format: functional; details: Chlorocebus sabaeus
# [22] = test system: Vero; test: Antiviral activity (to reduce virus-induced cytopathogenicity) against Reovirus-1 in vero cells; format: functional; details: Chlorocebus sabaeus
# [23] = test system: Vero; test: Minimum cytotoxic concentration (to alter cell morphology) against vero cells; format: functional; details: Chlorocebus sabaeus
# [24] = test system: HeLa; test: Cytotoxicity (to alter cell morphology) against HeLa cells; format: functional; details: Homo sapiens
# [25] = test system: E6SM; test: Antiviral activity (to reduce virus-induced cytopathogenicity) against Herpes simplex virus-1(KOS) in E6SM cell cultures; format: functional; details: Homo sapiens
# [26] = test system: E6SM; test: Antiviral activity (to reduce virus-induced cytopathogenicity) against Herpes simplex virus-1 TK-VMW1837 in E6SM cell cultures; format: functional; details: Homo sapiens
# [27] = test system: E6SM; test: Antiviral activity (to reduce virus-induced cytopathogenicity) against Herpes simplex virus-1 TK-B2006 in E6SM cell cultures; format: functional; details: Homo sapiens
SMILES,IC50 [1],CC50 [2],MCC [3],MIC [10],MIC [11],MCC [12],MIC [14],MIC [15],MIC [16],MIC [17],MIC [18],MIC [19],MIC [20],MIC [21],MIC [22],MCC [23],MCC [24],MIC [25],MIC [26],MIC [27],further results
Nc1nc2c(ncn2COCCO)c(=O)[nH]1 [ACYCLOVIR],0.32 µg/mL,> 50 µg/mL,> 40 µg/mL,,,,,,,,,,,,,,,,,,IC50 [4]: 0.23 µg/mL; IC50 [5]: 9 µg/mL
Nc1nc2c(ncn2COC(CO)CO)c(=O)[nH]1 [GANCICLOVIR],,,,,,,,,,,,,,,,,,,,,IC50 [6]: 1.5 µg/mL; CC50 [7]: 200 µg/mL; IC50 [8]: 2 µg/mL; MCC [9]: > 100 µg/mL
Cc1ccn2c(COCCO)cnc2c1,> 40 µg/mL,> 200 µg/mL,> 40 µg/mL,> 200 µg/mL,> 200 µg/mL,> 400 µg/mL,> 200 µg/mL,> 200 µg/mL,> 400 µg/mL,> 400 µg/mL,> 400 µg/mL,> 200 µg/mL,> 200 µg/mL,> 200 µg/mL,> 200 µg/mL,> 200 µg/mL,200 µg/mL,> 400 µg/mL,> 400 µg/mL,> 400 µg/mL,IC50 [13]: > 40 µg/mL; IC50 [4]: > 40 µg/mL; IC50 [6]: > 40 µg/mL; CC50 [7]: > 200 µg/mL; IC50 [8]: > 40 µg/mL; IC50 [5]: > 40 µg/mL; MCC [9]: > 40 µg/mL
NC(=O)c1ncn([C@@H]2O[C@H](CO)[C@@H](O)[C@H]2O)n1 [RIBAVIRIN],,,,70 µg/mL,300 µg/mL,> 400 µg/mL,70 µg/mL,70 µg/mL,150 µg/mL,150 µg/mL,70 µg/mL,70 µg/mL,20 µg/mL,70 µg/mL,100 µg/mL,> 400 µg/mL,> 400 µg/mL,> 400 µg/mL,300 µg/mL,300 µg/mL,
Cc1ccn2c(CSCCO)cnc2c1,6 µg/mL,70 µg/mL,40 µg/mL,> 100 µg/mL,> 100 µg/mL,> 200 µg/mL,70 µg/mL,> 10 µg/mL,> 100 µg/mL,> 100 µg/mL,> 100 µg/mL,> 10 µg/mL,> 10 µg/mL,70 µg/mL,> 40 µg/mL,100 µg/mL,10 µg/mL,> 200 µg/mL,> 100 µg/mL,> 100 µg/mL,IC50 [13]: 4 µg/mL; IC50 [4]: 10 µg/mL; IC50 [6]: > 10 µg/mL; CC50 [7]: 70 µg/mL; IC50 [8]: > 10 µg/mL; IC50 [5]: 7 µg/mL; MCC [9]: 40 µg/mL
OCCOCc1c(-c2ccccc2)nc2ccccn12,> 40 µg/mL,135 µg/mL,> 40 µg/mL,> 200 µg/mL,> 200 µg/mL,> 200 µg/mL,70 µg/mL,> 200 µg/mL,> 200 µg/mL,> 100 µg/mL,> 200 µg/mL,> 200 µg/mL,> 200 µg/mL,> 200 µg/mL,> 200 µg/mL,400 µg/mL,400 µg/mL,> 200 µg/mL,> 100 µg/mL,> 100 µg/mL,IC50 [13]: > 40 µg/mL; IC50 [4]: > 40 µg/mL; IC50 [6]: > 40 µg/mL; CC50 [7]: 130 µg/mL; IC50 [8]: > 40 µg/mL; IC50 [5]: > 40 µg/mL; MCC [9]: 100 µg/mL
Nc1nccc2c1ncn2[C@@H]1O[C@H](CO)[C@@H](O)[C@H]1O,,,,> 400 µg/mL,> 400 µg/mL,> 400 µg/mL,0.7 µg/mL,> 400 µg/mL,300 µg/mL,0.7 µg/mL,0.7 µg/mL,> 400 µg/mL,2 µg/mL,4 µg/mL,2 µg/mL,> 400 µg/mL,> 400 µg/mL,> 400 µg/mL,> 400 µg/mL,200 µg/mL,
Nc1ncnc2c1ncn2C[C@H](O)CO [(S)-DHPA],,,,> 400 µg/mL,> 400 µg/mL,> 400 µg/mL,20 µg/mL,> 400 µg/mL,> 400 µg/mL,40 µg/mL,40 µg/mL,> 400 µg/mL,70 µg/mL,> 400 µg/mL,40 µg/mL,> 400 µg/mL,> 400 µg/mL,100 µg/mL,100 µg/mL,200 µg/mL,
OCCSCc1c(-c2ccccc2)nc2ccccn12,35 µg/mL,80 µg/mL,> 40 µg/mL,20 µg/mL,70 µg/mL,> 200 µg/mL,> 10 µg/mL,> 100 µg/mL,70 µg/mL,> 40 µg/mL,70 µg/mL,> 100 µg/mL,> 100 µg/mL,20 µg/mL,> 10 µg/mL,40 µg/mL,> 100 µg/mL,100 µg/mL,> 40 µg/mL,> 40 µg/mL,IC50 [13]: 26 µg/mL; IC50 [4]: 28 µg/mL; IC50 [6]: 25 µg/mL; CC50 [7]: 80 µg/mL; IC50 [8]: 20 µg/mL; IC50 [5]: 10 µg/mL; MCC [9]: > 40 µg/mL
O=c1[nH]c(=O)n([C@H]2C[C@H](O)[C@@H](CO)O2)cc1/C=C/Br [BRIVUDINE],,,,> 400 µg/mL,> 400 µg/mL,> 400 µg/mL,> 400 µg/mL,> 400 µg/mL,20 µg/mL,> 400 µg/mL,0.2 µg/mL,> 400 µg/mL,> 400 µg/mL,> 400 µg/mL,> 400 µg/mL,> 400 µg/mL,> 400 µg/mL,0.004 µg/mL,1 µg/mL,2 µg/mL,
